How the values were obtained:
HL60 cells = assay: Anti-cancer activity test, MTT, HL60 cells; assay type: cell-based; details: Homo sapiens, HL-60, culturing for 72 hours
Experimental: (§1) Cell culture medium: Roswell medium RPMI-1640 (+L-glutamine) was added with 10% fetal bovine serum, with 100 units penicillin and 100 μg streptomycin per ml.
(§2) Cell culture conditions: 5% CO2, 95% humidity, cultured at 37° C. constant temperature.
(§3) 2. Cell Inoculation, Drugs Dosing and Culture.
(§4) Logarithmic growth phase HL-60, human chronic myeloid leukemia cells (K562), human esophageal squamous cell carcinoma cells (KYSE510), human large cell lung cancer cells (H460) were inoculated into 96-well cell culture plates, 2×10^4 cells per well. Different concentrations of active compounds (dissolved in dimethyl sulfoxide (DMSO) stock solution) were added, so that the final concentration of DMSO was 0.2%, and the control group was DMSO. Each group was repeated three times.
(§5) After culturing for 72 hours, 20 µL of thiazolyl blue (MTT) (5 mg/ml, ready for use, dissolved in 1×PBS for cell culture) was added to each well, and incubated at 37° C. for 3 hours.
(§6) The 96-well cell culture plates were centrifuged at 1000 rpm for 10 minutes. The supernatant was discarded; 200 μL of DMSO was added to each well and the plate was shaken for 5 minutes.
(§7) The absorbance of each well was detected at 570 nm wavelength with a microplate reader, and the IC50 of the compounds was calculated.

[1] = molecular target: c-Myc370-412-biotin peptide (Homo sapiens (Human), UniProt P01106); assay: SPR binding affinity on c-Myc protein; details: c-Myc370-412-biotin peptide immobilized, 1.00×PBS-P buffer (5% DMSO)
Experimental: 1. Experiment Preparation
10×PBS-P was diluted into 1.05×PBS-P buffer solution for later use. The c-Myc370-412-biotin peptide was dissolved in chromatographic pure DMSO to prepare a 1 mM stock solution. The molecules were dissolved in chromatographic pure DMSO to prepare a 10 mM stock solution. Part of 1.05×PBS-P buffer was added to chromatographic pure DMSO to prepare 1.00×PBS-P buffer (5% DMSO, ready for use).
The highest solubility of each small molecule in the 1.00×PBS-P buffer (5% DMSO) system was tested respectively. This solubility was used as the highest concentration tested for small molecule activity.
2. Protein Immobilization
The c-Myc370-412-biotin peptide stock solution was added to 1.05×PBS-P buffer to prepare a 50 μM solution, and then diluted with 1.00×PBS-P buffer (5% DMSO) to […] for protein immobilization.
After washing the sample channel and reference channel of the chip with 1.00×PBS-P buffer (5% DMSO), an automatic mode was used to immobilize the protein in the sample channel. The target amount of the immobilized protein was 500RU. The immobilization was successful. The buffer was used continuously to flush until equilibrium.
3. Small Molecule Activity Test.
Buffer was used to prepare different concentrations of small molecule compounds for sample testing. The system was 1.00×PBS-P buffer (5% DMSO). The difference was detected between the response of small molecules flowing through the sample channel and the reference channel.
The experimental conditions were a flow rate of 30 μL/min, binding time of 120 seconds, and dissociation time of 240 seconds. After each binding and dissociation test, 50% DMSO was used to flush the tubing, and 10 mM glycine-HCl buffer (pH 2.1) was used to flush the surface of the chip to wash away the remaining compound molecules.

c-Myc peptide LE40 = c-Myc peptide LE40 (Homo sapiens, UniProt P01106); assay: Single-cycle binding kinetics with c-Myc peptide LE40
[2] = molecular target: c-Myc peptide LE40 (S373A) (Homo sapiens, UniProt P01106, S373A); assay: Single-cycle binding kinetics with c-Myc peptide LE40 (S373A)
c-Myc protein = c-Myc protein (Homo sapiens (Human), UniProt P01106); assay: Degradation of c-Myc protein
[3] = system: human chronic myeloid leukemia cells (K562); assay: Anti-cancer activity test, MTT, K562 cells; assay type: cell-based; details: culturing for 72 hours
Experimental: as §1, §2, §3, §4, §5, §6, §7

[4] = system: human esophageal squamous cell carcinoma cells (KYSE510); assay: Anti-cancer activity test, MTT, KYSE510 cells; assay type: cell-based; details: KYSE-510, culturing for 72 hours
Experimental: as §1, §2, §3, §4, §5, §6, §7

[5] = system: human large cell lung cancer cells (H460); assay: Anti-cancer activity test, MTT, H460 cells; assay type: cell-based; details: NCI-H460, culturing for 72 hours
Experimental: as §1, §2, §3, §4, §5, §6, §7

c-Myc and Max = c-Myc and Max (Homo sapiens (Human), UniProt P01106); assay: Competition for the binding of c-Myc and Max
[6] = system: tumor cells with high expression of c-Myc; assay: Inhibition of tumor cells with high expression of c-Myc; assay type: cell-based

Chain of c-Myc370-412-biotin peptide (P01106 385-427): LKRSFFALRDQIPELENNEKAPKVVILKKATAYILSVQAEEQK
Chain of c-Myc protein (P01106 whole entry): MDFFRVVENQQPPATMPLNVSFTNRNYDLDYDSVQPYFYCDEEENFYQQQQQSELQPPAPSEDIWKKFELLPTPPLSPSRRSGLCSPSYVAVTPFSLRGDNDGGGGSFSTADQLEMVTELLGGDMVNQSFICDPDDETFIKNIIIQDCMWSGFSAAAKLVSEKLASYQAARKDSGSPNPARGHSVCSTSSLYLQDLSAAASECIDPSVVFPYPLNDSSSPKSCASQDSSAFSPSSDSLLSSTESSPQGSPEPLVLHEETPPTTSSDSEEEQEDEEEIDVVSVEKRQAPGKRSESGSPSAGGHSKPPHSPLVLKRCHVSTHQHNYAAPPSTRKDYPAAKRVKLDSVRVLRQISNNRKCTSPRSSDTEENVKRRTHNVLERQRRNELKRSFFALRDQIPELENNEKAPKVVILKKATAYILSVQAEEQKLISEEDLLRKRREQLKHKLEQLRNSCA
Chain of c-Myc and Max (P01106 whole entry): as above

| Compound | IC50 (HL60 cells) [nM] | Kd [1] [nM] | IC50 [3] [nM] | IC50 [4] [nM] | IC50 [5] [nM] | also measured |
| --- | --- | --- | --- | --- | --- | --- |
| CC(C)C[C@H](NC(=O)[C@@H](NC(=O)OCC1c2ccccc2-c2ccccc21)[C@@H](C)OC(C)(C)C)B1O[C@@H]2C[C@@H]3C[C@@H](C3(C)C)[C@]2(C)O1 [Compound A2] | < 100 | 100 to 500 |  |  |  |  |
| CC(C)C[C@H](NC(=O)[C@H](CSC(c1ccccc1)(c1ccccc1)c1ccccc1)NC(=O)OCC1c2ccccc2-c2ccccc21)B1O[C@@H]2C[C@@H]3C[C@@H](C3(C)C)[C@]2(C)O1 [Compound A3] | 500 to 2000 | 100 to 500 |  |  |  |  |
| CC(C)C[C@H](NC(=O)[C@H](Cc1cn(C(c2ccccc2)(c2ccccc2)c2ccccc2)cn1)NC(=O)OCC1c2ccccc2-c2ccccc21)B1O[C@@H]2C[C@@H]3C[C@@H](C3(C)C)[C@]2(C)O1 [Compound A4] | < 100 | < 100 |  |  |  |  |
| CSCC[C@H](NC(=O)OCC1c2ccccc2-c2ccccc21)C(=O)N[C@@H](CC(C)C)B1O[C@@H]2C[C@@H]3C[C@@H](C3(C)C)[C@]2(C)O1 [Compound A5] | < 100 | 100 to 500 |  |  |  | Kd (c-Myc peptide LE40): 160 nM; binding (single-cycle binding kinetic curve) [2]: no obvious binding; degradation of c-Myc protein (c-Myc protein): promote the degradation of c-Myc protein |
| CC(C)C[C@H](NC(=O)[C@H](CCC(=O)NC(c1ccccc1)(c1ccccc1)c1ccccc1)NC(=O)OCC1c2ccccc2-c2ccccc21)B1O[C@@H]2C[C@@H]3C[C@@H](C3(C)C)[C@]2(C)O1 [Compound A6] | < 100 | < 100 |  |  |  |  |
| CC(C)C[C@H](NC(=O)[C@H](CCC(=O)OC(C)(C)C)NC(=O)OCC1c2ccccc2-c2ccccc21)B1O[C@@H]2C[C@@H]3C[C@@H](C3(C)C)[C@]2(C)O1 [Compound A7] | < 100 | < 100 |  |  |  |  |
| CC(C)C[C@H](NC(=O)[C@H](CC(C)C)NC(=O)OCC1c2ccccc2-c2ccccc21)B1O[C@@H]2C[C@@H]3C[C@@H](C3(C)C)[C@]2(C)O1 [Compound A10] | < 100 |  | < 100 | < 100 | < 100 |  |

Further lines, with some results ahead:

| IC50 (HL60 cells) [nM] | Kd [1] [nM] | IC50 [3] [nM] | IC50 [4] [nM] | IC50 [5] [nM] | Compound | also measured |
| --- | --- | --- | --- | --- | --- | --- |
| < 100 |  |  |  |  | CC(C)C[C@H](NC(=O)[C@H](CCCCNC(=O)OC(C)(C)C)NC(=O)OCC1c2ccccc2-c2ccccc21)B1O[C@@H]2C[C@@H]3C[C@@H](C3(C)C)[C@]2(C)O1 [Compound A13] | competition for the binding of c-Myc and Max (c-Myc and Max): can compete for the binding of c-Myc and Max; degradation of c-Myc protein (c-Myc protein): promote the degradation of c-Myc protein; selective inhibition of tumor cells with high expression of c-Myc [6]: selectively inhibits tumor cells with high expression of c-Myc |
| < 100 |  | < 100 | < 100 | < 100 | CC(C)C[C@H](NC(=O)[C@H](CC(C)C)NC(=O)CC1c2ccccc2-c2ccccc21)B(O)O [Compound A67] |  |
| < 100 |  | < 100 | < 100 | < 100 | CC(C)C[C@H](NC(=O)[C@H](Cc1c[nH]c2ccccc12)NC(=O)CC1CCCC1)B(O)O [Compound A69] |  |
